Experiments:
[1] = test system: MAPK proteins (BRAF, CRAF, MEK, pMEK, ERK, pERK); conditions: HCT116, braftide alone; cited from earlier work
Protocol: HCT116 cells were treated with 17-AAG alone or in combination with braftide (Fig. 5, C and D). HSP90 monotherapy (17-AAG) depleted CRAF kinase level at a concentration of 2 μM (Fig. 5C), whereas braftide monotherapy ([23]) depleted RAF kinase levels at a concentration of 10 μM. To investigate potential synergy, we assessed combinatorial treatments in HCT116 cells, using a fixed concentration of 500 nM of the primary drug (braftide) with increasing concentrations (0 to 1 μM) of the secondary drug (17-AAG) (Fig. 5D).

CDC37–CRAF interaction = assay: Co-IP of CDC37-FLAG with CRAF-HA in HCT116; assay type: cell-based; conditions: HCT116, 5 µM braftide, three biological replicates
BRAF–CDC37 interaction = assay: NanoBiT luminescence CDC37–RAF interaction reporter assay, BRAF^SmBiT–CDC37^LgBiT; assay type: cell-based, human (HEK293)
Source text: NanoBiT cytomegalovirus MCS BiBiT vector, which contains a BRAF N terminal fused with LgBiT and CRAF N terminal fused with SmBiT, was purchased from Promega. CDC37 LgBiT and CRAF SmBiT was generated using the standard Gibson Assembly (NEB HiFi Assembly) using NanoBiT BiBiT as the vector and following primers: 5′ […] 3′, 5′ […] 3′, 5′ […] 3′, 5′ […] 3′, and CDC37 LgBiT and BRAF SmBiT was generated using the standard Gibson Assembly using NanoBiT BiBiT as the vector and following primers: 5′ […] 3′, 5′ […] 3′, 5′ […] 3′, 5′ […] 3′. Primers were designed to introduce H20A, N22A, I23A triple mutation within the CDC37 FLAG tag and for NanoBiT construct CDC37(HNI/A) LgBit and BRAF SmBiT. Primers were designed to introduce the desired substitutions. The forward primer sequence was 5′ gccgcc[…] 3′, and the reverse primer sequence was 5′ gggggc[…] 3′. Site-directed mutagenesis was carried out using the Q5 Site-Directed Mutagenesis Kit (NEB; E0554) following the manufacturer's protocol.
Twenty-four hours post-transfection, cells were trypsinized, pelleted, resuspended in OptiMEM + 4% fetal bovine serum, and reseeded onto a 96-well plate at 5(10)^4 cells per well and then incubated at 37 °C overnight. Cells were pretreated with 1 μM bortezomib for 5 h and then braftide for 4 h at 0 and 25 μM. After treatment, 10 μM furimazine substrate was added to each well, and luminescence readings were taken at 470 to 480 nm using a CLARIOstar plate reader. Statistical significance was determined through a paired t test where indicated, followed by Tukey's honest significant difference post hoc test with corresponding p values (∗p < 0.05, ∗∗p < 0.01, and ∗∗∗p < 0.001). All graph bars represent the mean ± SD with individual data points per biological replicate with corresponding p values.

WM3629 cells = assay: WST-1 cell viability assay, WM3629; assay type: cell-based; conditions: WM3629, WST-1, 24 h
Protocol: (§4) HCT116 and WM3629 cells were seeded onto polylysine-coated, clear-bottomed, 96-well plates at 15(10)^3 cells per well and allowed to incubate for 24 h. Cells were treated with braftide and 17-AAG mixtures at indicated concentrations for 24 h (37 °C). The WST-1 cell viability assay was carried out according to the manufacturer's protocols (Roche; 11644807001) for 4 h, and absorbance readings were taken at 450 nM in a CLARIOstar plate reader. For the dose–response curves of braftide and 17-AAG, the data were fit to the 4-parameter logistic equation (dose–response fitting equation) in GraphPad Prism (Dotmatics): y=A1+(A2−A1)÷(1+10^(LOGx0−x)p)
(§5) Error bars are indicative of the SEM of each point.

CDC37–AKT1 interaction = assay: Co-IP of CDC37-FLAG with AKT1; assay type: cell-based, human (HEK293); conditions: HEK293, 25 µM braftide, bortezomib pretreated, n=4
Protocol: (§1) HEK293 cells were seeded at 1(10)^6 cells per well for a 6-well plate or 5(10)^6 for 10 cm dishes and incubated until 40% to 60% confluency. Transfection was carried out using a 1:3 DNA:PEI-MAX ratio in OPTI-MEM and allowed 48 h for protein expression. For peptide assays, 48 h post-transfection, cells were treated with TAT–braftide carried in OPTI-MEM at indicated concentrations. Cells were harvested in cold PBS. Harvested cells were lysed in 4% SDS or modified radioimmunoprecipitation assay (RIPA) for co-IP experiments. Quantification of total protein by the bicinchoninic acid assay was carried out according to the manufacturer's protocols (Pierce; catalog no.: 23225).
(§2) Transfected HEK293 cells were treated with the indicated treatments and harvested in cold PBS. […] Samples were analyzed via immunoblot.
(§3) Western blot band densities were quantified with ImageJ software (National Institutes of Health) and normalized to the indicated loading control. Statistical significance was determined through one-/two-way ANOVA, where indicated, followed by Tukey's honest significant difference post hoc test with corresponding p values (∗p < 0.05, ∗∗p < 0.002, ∗∗∗p < 0.0002, and ∗∗∗∗p < 0.0001). […]

[2] = test system: CRAF–CDC37/HSP90 chaperone complex; assay: Co-IP of MBP-CRAF-FLAG with endogenous CDC37–HSP90 chaperone complex; assay type: cell-based, human (HEK293); conditions: HEK293, 50 μM braftide, 4 h, bortezomib pretreatment, three biological replicates
Protocol: as §1, §2, §3

HCT116 cells = assay: WST-1 cell viability assay, HCT116; assay type: cell-based; conditions: HCT116, WST-1, 24 h
Protocol: as §4, §5

CDC37–BRAF interaction = assay: Co-IP of CDC37-FLAG with BRAF-V5 in HEK293; assay type: cell-based, human (HEK293); conditions: HEK293, 25 μM braftide, bortezomib pretreatment
Protocol: as §1, §2, §3

[3] = test system: selected kinases in HCT116 cells; assay: Immunoblot of selected kinases in HCT116 cells; assay type: cell-based; conditions: Western blot; for protein levels of Chk2, PKCδ, and SRPK1: HCT116, braftide, Fig. S12A
Protocol: Western blot band densities were quantified with ImageJ software (National Institutes of Health) and normalized to the indicated loading control. Statistical significance was determined through one-/two-way ANOVA, where indicated, followed by Tukey's honest significant difference post hoc test with corresponding p values (∗p < 0.05, ∗∗p < 0.002, ∗∗∗p < 0.0002, and ∗∗∗∗p < 0.0001). All graph bars represent the mean ± SD with individual data points per biological replicate with corresponding p values.

GRKKRRQRRRPQ-miniPEG-TRHVNILLFM [Braftide]
concentration at which RAF kinase levels are depleted, braftide monotherapy [1]: 10 µM
CDC37–CRAF interaction (CDC37–CRAF interaction): decreases its association with coimmunoprecipitated BRAF-V5 and CRAF-HA
CDC37–CRAF interaction (CDC37–CRAF interaction; listed as braftide): reduced the CDC37–RAF interaction at lower doses than in HEK293 cells
NanoBiT luminescence, BRAF^SmBiT–CDC37^LgBiT (BRAF–CDC37 interaction; HEK293, 25 μM braftide, 4 h, 1 μM bortezomib pretreatment 5 h, 10 μM furimazine, 470 to 480 nm): reduction in luminescence, reflecting a decrease in the CDC37–RAF interaction
protein levels of NanoBiT constructs (immunoblot control) (BRAF–CDC37 interaction; HEK293, braftide, bortezomib pretreatment, BRAF and CRAF constructs (Fig. 1, K and M)): protein levels remained the same with bortezomib pretreatment
synergy of braftide and 17-AAG, WM3629 (WM3629 cells): synergy between braftide and 17-AAG
association of CDC37 with AKT1 (CDC37–AKT1 interaction): disrupts client AKT1 from CDC37-FLAG in HEK293 cells
association of CDC37 with AKT1 (CDC37–AKT1 interaction; listed as braftide): reduced association of CDC37 with AKT1
association of CRAF with CDC37 and HSP90 [2]: reduced their association with CDC37 and HSP90 compared with the nontreated control
synergy of braftide and 17-AAG, HCT116 (HCT116 cells): synergy between braftide and 17-AAG
CDC37–BRAF complex (CDC37–BRAF interaction): reduced the CDC37–client BRAF–CRAF complex
protein expression levels of downregulated kinases ([3]; HCT116, 10 μM braftide, 1 h, n = 9): reduced protein expression levels of GSK3α, S6, AKT1, TAK, FAK, BRAF, CRAF, MEK1/2, and ERK1/2
protein levels of Chk2, PKCδ, and SRPK1 [3]: unaffected by Braftide treatment
protein levels of Chk2, PKCδ, and SRPK1 ([3]; listed as braftide): protein levels of these kinases remain unchanged after braftide treatment
